Assay [1] concerns MDA-MB231 breast cancer cells. Put plainly: Soft agar colony formation, MDA-MB231 breast cancer cells. Format: cell-based. To be noted: 14 days, MTT. As for the experimental part: (§1) The assay was done using CYTOSELECT™ 96-Well In Vitro Tumor Sensitivity Assay kit from Cell Biolabs, Inc. (San-Diego, Calif.). The cells were grown for 14 days with RPMI and 10% FBS medium in the presence of the indicated concentration of Compound 1 (PRT7000467). The quantification of the colony formation on soft agar was done using MTT reagent after solubilization of the agar (all the materials are supplied in the kit). The IC50 value was calculated using Prism software.

The next assay deals with A2058 (melanoma) cells. As to the kind of experiment: Transwell cell migration assay, A2058. To be noted: Homo sapiens. Type of assay: cell-based. From the text:
(§2) A375 (melanoma) (CRL-1619, ATCC, Manassas, Va., USA), A431 (melanoma) (CRL-2592, ATCC, Manassas, Va., USA), A2058 (melanoma) (CRL-11147, ATCC, Manassas, Va., USA), MDA-MB-231 (breast) (HTB-26, ATCC, Manassas, Va., USA), LS175T (colon) (ATCC, Manassas, Va., USA), HT29 (colon) (HTB-38, ATCC, Manassas, Va., USA), PC3 (prostate) (CRL-1435, ATCC, Manassas, Va., USA), Panc03.27 (pancreatic) (ATCC, Manassas, Va., USA), 4T1 (breast-mouse) (CRL-2539, ATCC, Manassas. Va., USA), D122 (lung-mouse) (the Weizmann Institute of Science), D122-luc (lung-mouse) (the Weizmann Institute of Science), and B16 F10.9 (melanoma-mouse) cells (Caliper Life Sciences, Hopkinton Mass.), were grown in RPMI medium supplemented with 10% FBS. HUVEC cells were grown in Endothelial Cell Growth Medium 2 and THP1 cells were grown in RPMI medium supplemented with 10% FBS, 2 mM L-Glutamine, 1.5 g/L sodium bicarbonate, 10 mM Hepes, 1 mM sodium pyruvate, 4.5 g/L glucose and 0.05 mM 2-mercaptoethanol. The cells were starved for 24 hours in medium without FBS. […] Cells that migrated to the lower side of the membrane were stained with Calcein-AM (Sigma) and images were taken with a fluorescence microscope. The number of migrating cells was quantified by ImageJ software and the IC50 values were calculated using Prism software (Graphpad).

The subject of the next assay is 4T1 (breast-mouse) cells. As to the kind of experiment: Transwell cell migration assay, 4T1. Type of assay: cell-based.
Text: as §2

For the next assay, the system named is HUVEC cells. Put plainly: HUVEC tube-formation assay. Format: cell-based, human. To be noted: 25 μM, 6 h, BME with 50 ng/ml VEGF (FIG. 3). As for the experimental part:
Human umbilical vein endothelial cells (HUVEC) were grown routinely in Endothelial Cell Growth Medium 2 with SupplementMix (PromoCell, Germany) containing 15% fetal bovine serum. For Tube-formation assay, 1×10^4 cells, in the above medium containing 5% fetal bovine serum, were seeded on top of Cultrex reduced growth factor Basement Membrane Extract (BME) (R&D Systems, Minneapolis, Minn.) supplemented with 50 ng/ml VEGF (Prospec, Israel). The cells were treated with either solvent (50% DMSO/50% PEG400), 25 μM compound 1 (PRT7000467), 10 μM LY294004 (Cayman Chemical, Ann Arbor, Mich.) or 3 μM FTY720 (Cayman Chemical, Ann Arbor, Mich.) as indicated. LY294004 is a PI3K inhibitor and FTY720 is a modulator of sphingosine-1-phosphate receptors, both of them served as positive controls. Six hours later the cells were stained with Calcein-AM (Sigma, Israel) and images were taken with a fluorescence microscope.

Another assay concerns PC3 (prostate) cells. Put plainly: Transwell cell migration assay, PC3. Format: cell-based.
Text: as §2

The subject of assay [2] is MDA-MB-231 breast cancer cells. Put plainly: Transwell cell migration assay, MDA-MB-231 breast cancer cells. Format: cell-based. The protocol:
MDA-MB-231 (HTB-26, ATCC, Manassas, Va., USA) and MDA-MB-468 (HTB-132, ATCC, Manassas, Va., USA) breast cancer cell lines and DU 145 (HTB-81, ATCC, Manassas, Va., USA) prostate cancer cell line grown in RPMI medium supplement with 10% FBS were starved for 24 hours in medium without FBS. After 24 hours, 5×10^4 cells in FBS free medium were placed in the upper chamber of 24-well Transwell apparatus (CORNING TRANSWELL® polycarbonate membrane inserts, 8 μm pore size) with solvent (DMSO/PEG400) or 12.5 μM Compound 1 as indicated. Medium with FBS and Compound 1 was added to the bottom chamber. Twenty-four hours later the cells from the upper chamber were removed with a cotton swab. Cells that migrated to the lower side of the membrane were stained with Calcein-AM (Sigma) and images were taken with a fluorescence microscope. […]

The subject of assay [3] is A375 melanoma cells. Put plainly: Soft agar colony formation, A375 melanoma cells. Type of assay: cell-based. To be noted: 14 days, MTT; for soft agar colony formation: A375 melanoma cells. The protocol:
as §1

Another assay relates to THP1 monocytes. As to the kind of experiment: Transwell cell migration assay, THP1. Format: cell-based. Conditions: Homo sapiens, THP-1; THP1, Monocyte.
Text: as §2

In assay [4] the test system is A375 melanoma cells. Put plainly: Transwell cell migration assay, A375 melanoma cells. Type of assay: cell-based. To be noted: Homo sapiens, A-375. As for the experimental part: A375 melanoma cells (CRL-1619, American Type Culture Collection (“ATCC”), Manassas Va., USA)) grown in RPMI medium supplement with 10% FBS were starved for 24 hours in FBS free medium. After starvation of 24 hr, 5×10^4 cells in FBS free medium were placed in the upper chamber of 24-well, Transwell apparatus (CORNING TRANS WELL® polycarbonate membrane inserts, 5 μm pore size) with solvent (DMSO/PEG400) or different concentrations of Compound 1 (PRT7000467), Compound 2 (PRT7041128), or Compound 3 (PRT7081582). Medium containing FBS and compounds was added to the bottom chamber. Twenty-four hours later the melanoma cells from the upper chamber were removed with a cotton swab. Cells that migrated to the lower side of the membrane were stained with Calcein-AM (Sigma) and images were taken with fluorescence microscope. The number of migrating cells was quantified by ImageJ software and the IC50 values were calculated using Prism software (Graphpad) (FIG. 1A,1E).
A375 (melanoma) (CRL-1619, ATCC, Manassas, Va., USA), A431 (melanoma) (CRL-2592, ATCC, Manassas, Va., USA), A2058 (melanoma) (CRL-11147, ATCC, Manassas, Va., USA), MDA-MB-231 (breast) (HTB-26, ATCC, Manassas, Va., USA), LS175T (colon) (ATCC, Manassas, Va., USA), HT29 (colon) (HTB-38, ATCC, Manassas, Va., USA), PC3 (prostate) (CRL-1435, ATCC, Manassas, Va., USA), Panc03.27 (pancreatic) (ATCC, Manassas, Va., USA), 4T1 (breast-mouse) (CRL-2539, ATCC, Manassas. Va., USA), D122 (lung-mouse) (the Weizmann Institute of Science), D122-luc (lung-mouse) (the Weizmann Institute of Science), and B16 F10.9 (melanoma-mouse) cells (Caliper Life Sciences, Hopkinton Mass.), were grown in RPMI medium supplemented with 10% FBS. HUVEC cells were grown in Endothelial Cell Growth Medium 2 and THP1 cells were grown in RPMI medium supplemented with 10% FBS, 2 mM L-Glutamine, 1.5 g/L sodium bicarbonate, 10 mM Hepes, 1 mM sodium pyruvate, 4.5 g/L glucose and 0.05 mM 2-mercaptoethanol. The cells were starved for 24 hours in medium without FBS. At the end of the starvation, 5×10^4 cells in medium without FBS were placed in the upper chamber of 24-well, Transwell apparatus (CORNING TRANSWELL® polycarbonate membrane inserts, 5 μm pore size for […] and THP1 cells and 8 μm pore size for all the other cells) with solvent (DMSO/PEG400) or different concentrations of compound 1 (PRT7000467). Medium with FBS and compounds was added to the bottom chamber. Twenty-four hours later the cells from the upper chamber were removed with a cotton swab. Cells that migrated to the lower side of the membrane were stained with Calcein-AM (Sigma) and images were taken with a fluorescence microscope. The number of migrating cells was quantified by ImageJ software and the IC50 values were calculated using Prism software (Graphpad).

Assay [5] deals with B16 F10.9 (melanoma-mouse) cells. As to the kind of experiment: Transwell cell migration assay, B16 F10.9. Format: cell-based.
Text: as §2

The mark [6] stands for this setting: A375 melanoma cells, Transwell 5 μm pore, 24 h, Example 3 (FIGS. 1A, 1E), read-out: IC50 in the migration assay.

Where two headings read alike, the source gives them in different places. Bounds are passed on as bounds.

Take `Cc1cc(C)nc(NS(=O)(=O)c2ccc(NC(=O)/C(=C\c3cccs3)NC(=O)c3cccs3)cc2)n1` [Compound 1]: the “soft agar colony formation” value (in [1] (MDA-MB231 breast cancer cells); with A375 melanoma cells [3]) was “inhibits soft agar colony formation” in each case. Besides, the “LD50 in the soft agar colony formation assay” value in assay [1] (MDA-MB231 cells) is 13.08 µM; with A375 melanoma cells [3] (A375 cells), 2.8 to 5.6 µM. For the same compound, the IC50 is 3.5 µM with A2058 (melanoma) cells; 0.8 µM in the assay on 4T1 (breast-mouse) cells; 6.3 µM with PC3 (prostate) cells; 0.5 µM in [2] (Homo sapiens, MDA-MB-231, MDA-MB231, Breast); above 30 µM in the assay with THP1 monocytes; 1.7 µM with A375 melanoma cells [4] (A375, Melanoma, reexamined, Table 1, 6 repeats, read-out: IC50 (μM), Transwell migration). In addition, the figures for the IC50 (in the assay with A375 melanoma cells [4] (setting [6]); in [5]) were 5.7 µM and 0.2 µM, respectively. Moreover, the “formation of tube-like structure by HUVEC cells” value with HUVEC cells was “inhibits the formation of tube-like structure”. Also, the “cell migration (Transwell, images)” value in [2] (MDA-MB-231, 12.5 μM, 24 h, 8 μm pore (FIG. 2)) is “inhibits the migration”.

Turning to `Cc1cc(S(=O)(=O)Nc2ncccn2)ccc1NC(=O)/C(=C\c1cccs1)NC(=O)c1cccs1` [Compound 3], in the assay on A375 melanoma cells [3], the “soft agar colony formation” value was “inhibit soft agar colony formation”. The IC50 in the assay with A375 melanoma cells [4] (setting [6]) was determined as 1.41 µM.

The values are drawn from US20110130374A1, “Small Pyrimidine Derivatives and Methods of Use Thereof” (BIOSEARCH(2007) LTD., priority 2009, published 2011).
